Test results reported in patent publication US4639541A, “Substituted phenylacetic acid iodopropargyl esters, biocidal agents containing same and process for manufacturing same” (priority 1984, dated 1987).

Columns and labels:
Fusarium culmorum = assay: Spore germination test, Fusarium culmorum; assay type: cell-based; settings: 48 hours, 20° C., vs untreated control
Procedure: (§1) 50 μl of a solution or suspension of an active ingredient according to the invention together with 50 μl of a spore suspension produced by washing spores of an agar culture with a nutrient solution that contained per liter 10 g of sugar, 1 g of glycol, 1 g of KH2 PO4 and 0.5 g of MgSO4 were introduced into the concave-ground portion of concave-ground microscope slides.
(§2) The microscope slides were stored at 20° C. for 48 hours in a Petri dish, the base of which was covered with a moistened filter paper.
(§3) Subsequently, the ratio of germinated and non-germinated spores was compared with an untreated control specimen.
(§4) The degree of activity was calculated as a percentage in accordance with the following formula: [formula]

Botrytis cinerea [1] = assay: Fungicidal activity against Botrytis cinerea in broad beans; assay type: in vivo; settings: 500 ppm spray, broad beans "Midget", after 6 days, 20° C., 95% humidity, vs untreated
Procedure: Broad beans of the "Midget" variety were grown to a height of approximately 10 cm. The plants were sprayed until dripping wet with spray liquors containing 500 ppm of active ingredient.
When the spray coating had dried, the plants were inoculated with a spore suspension of Botrytis cinerea. The plants were placed in a climatic cabinet at a constant 20° C. and an atmospheric humidity of 95%.
After 6 days, fungicidal activity was evaluated. The activity was ascertained in comparison with untreated specimens.
The degree of activity as a percentage was ascertained in accordance with the following formula [formula] The following were used as active ingredients: I 2-chloro-3,5-dinitrophenylacetic acid iodopropargyl ester

Alternaria tenuis = assay: Spore germination test, Alternaria tenuis; assay type: cell-based; settings: 48 hours, 20° C., vs untreated control
Procedure: as §1, §2, §3, §4

Colletotrichum coffeanum = assay: Spore germination test, Colletotrichum coffeanum; assay type: cell-based; settings: 48 hours, 20° C., vs untreated control
Procedure: as §1, §2, §3, §4

Verticillium dahliae = assay: Spore germination test, Verticillium dahliae; assay type: cell-based; settings: 48 hours, 20° C., vs untreated control
Procedure: as §1, §2, §3, §4

Fusarium nivale = assay: Spore germination test, Fusarium nivale; assay type: cell-based; settings: 48 hours, 20° C., vs untreated control
Procedure: as §1, §2, §3, §4

Penicillium glaucum = assay: Spore germination test, Penicillium glaucum; assay type: cell-based; settings: 48 hours, 20° C., vs untreated control
Procedure: as §1, §2, §3, §4

Botrytis cinerea [2] = assay: Spore germination test, Botrytis cinerea; assay type: cell-based; settings: 48 hours, 20° C., vs untreated control
Procedure: as §1, §2, §3, §4

In the case of `O=C(Cc1ccccc1)OCC#CI` [V], the inhibition of growth at 1 ppm (Fusarium culmorum; Fusarium culmorum, 1 ppm, read-out: degree of activity (fungal toxicity with respect to fungal spores)) is reported as 0%, the inhibition of growth at 2 ppm (Fusarium culmorum; Fusarium culmorum, 2 ppm, read-out: degree of activity (fungal toxicity with respect to fungal spores)) is reported as 0% and the inhibition of growth at 4 ppm (Fusarium culmorum; Fusarium culmorum, 4 ppm, read-out: degree of activity (fungal toxicity with respect to fungal spores)) is reported as 40%. The “% Activity against Botrytis cinerea in broad beans” value (Botrytis cinerea [1]) was 0%, the inhibition of growth at 1 ppm (Alternaria tenuis; Alternaria alternata, 1 ppm, read-out: degree of activity (fungal toxicity with respect to fungal spores)) was 80% and the inhibition of growth at 2 ppm (Alternaria tenuis; Alternaria alternata, 2 ppm, read-out: degree of activity (fungal toxicity with respect to fungal spores)) was 90%. For the same molecule, the inhibition of growth at 4 ppm (Alternaria tenuis; Alternaria alternata, 4 ppm, read-out: degree of activity (fungal toxicity with respect to fungal spores)) was 100%, the inhibition of growth at 1 ppm (Colletotrichum coffeanum; Colletotrichum coffeanum, 1 ppm, read-out: degree of activity (fungal toxicity with respect to fungal spores)) was 20% and the inhibition of growth at 2 ppm (Colletotrichum coffeanum; Colletotrichum coffeanum, 2 ppm, read-out: degree of activity (fungal toxicity with respect to fungal spores)) was 30%. For the same molecule, the inhibition of growth at 4 ppm (Colletotrichum coffeanum; Colletotrichum coffeanum, 4 ppm, read-out: degree of activity (fungal toxicity with respect to fungal spores)) was 80%, the inhibition of growth at 1 ppm (Verticillium dahliae; Verticillium dahliae, 1 ppm, read-out: degree of activity (fungal toxicity with respect to fungal spores)) was 0% and the inhibition of growth at 2 ppm (Verticillium dahliae; Verticillium dahliae, 2 ppm, read-out: degree of activity (fungal toxicity with respect to fungal spores)) was 0%. For the same molecule, the inhibition of growth at 4 ppm (Verticillium dahliae; Verticillium dahliae, 4 ppm, read-out: degree of activity (fungal toxicity with respect to fungal spores)) was 30%, the inhibition of growth at 1 ppm (Fusarium nivale; Microdochium nivale, 1 ppm, read-out: degree of activity (fungal toxicity with respect to fungal spores)) was 60% and the inhibition of growth at 2 ppm (Fusarium nivale; Microdochium nivale, 2 ppm, read-out: degree of activity (fungal toxicity with respect to fungal spores)) was 70%. The inhibition of growth at 4 ppm (Fusarium nivale; Microdochium nivale, 4 ppm, read-out: degree of activity (fungal toxicity with respect to fungal spores)) was 90%, the inhibition of growth at 1 ppm (Penicillium glaucum; Penicillium, 1 ppm, read-out: degree of activity (fungal toxicity with respect to fungal spores)) was 0% and the inhibition of growth at 2 ppm (Penicillium glaucum; Penicillium, 2 ppm, read-out: degree of activity (fungal toxicity with respect to fungal spores)) was 0%. For the same molecule, the inhibition of growth at 4 ppm (Penicillium glaucum; Penicillium, 4 ppm, read-out: degree of activity (fungal toxicity with respect to fungal spores)) was 40%, the inhibition of growth at 1 ppm (Botrytis cinerea [2]; Botrytis cinerea, 1 ppm, read-out: degree of activity (fungal toxicity with respect to fungal spores)) was 0% and the inhibition of growth at 2 ppm (Botrytis cinerea [2]; Botrytis cinerea, 2 ppm, read-out: degree of activity (fungal toxicity with respect to fungal spores)) was 0%. It also gave an inhibition of growth at 4 ppm (Botrytis cinerea [2]; Botrytis cinerea, 4 ppm, read-out: degree of activity (fungal toxicity with respect to fungal spores)) of 50%.
For `O=C(Cc1cc([N+](=O)[O-])c(Cl)c([N+](=O)[O-])c1)OCC#CI` [H], the “degree of activity (fungal toxicity with respect to fungal spores)” value (“degree of activity” below) (Fusarium culmorum; 2 ppm) was 90%, the “% Activity against Botrytis cinerea in broad beans” value (Botrytis cinerea [1]) was 30% and the “degree of activity” value (Alternaria tenuis; 2 ppm) was 100%. The “degree of activity” value (Colletotrichum coffeanum; 2 ppm) was 100%, the “degree of activity” value (Verticillium dahliae; 2 ppm) was 40% and the “degree of activity” value (Fusarium nivale; 2 ppm) was 90%. The “degree of activity” value (Penicillium glaucum; 2 ppm) was 100% and the “degree of activity” value (Botrytis cinerea [2]; 2 ppm) was 70%.
